Assay results taken from the CheMixHub viscosity set.
Values joined by “and” are separate entries in the source; they are usually repeats but may differ in a detail not shown here. Equal entries are not always repeated.

Assay: xn = mol fraction of the nth substance listed

CNC(C)=O + COCCO
viscosity [mPa·s], 101.33 kPa
Settings	308.15 K	313.15 K	318.15 K
x1 = 0.0301	1.362	1.242	1.136
x1 = 0.0501	1.393	1.27	1.16
x1 = 0.0752	1.431	1.304	1.191
x1 = 0.1036	1.476	1.343	1.227
x1 = 0.1301	1.515	1.378	1.259
x1 = 0.17	1.574	1.432	1.307
x1 = 0.2032	1.624	1.477	1.348
x1 = 0.2501	1.696	1.541	1.404
x1 = 0.302	1.776	1.613	1.468
x1 = 0.4032	1.94	1.758	1.596
x1 = 0.5037	2.114	1.91	1.73
x1 = 0.6033	2.308	2.074	1.876
x1 = 0.65	2.409	2.16	1.95
x1 = 0.7021	2.526	2.259	2.038
x1 = 0.7503	2.641	2.357	2.124
x1 = 0.8032	2.775	2.477	2.227
x1 = 0.8524	2.908	2.594	2.328
x1 = 0.9035	3.061	2.724	2.439
x1 = 0.9301	3.145	2.795	2.5
x1 = 0.9702	3.277	2.913	2.597

CC(C)CCO + COc1ccccc1
viscosity [mPa·s], 101.33 kPa
Settings	x2 = 0.1002	x2 = 0.2	x2 = 0.3005	x2 = 0.3997	x2 = 0.5004	x2 = 0.6014	x2 = 0.7004	x2 = 0.8003	x2 = 0.9008
303.15 K	2.52	2.023	1.657	1.401	1.216	1.087	0.999	0.944	0.916
313.15 K	1.905	1.545	1.283	1.101	0.974	0.893	0.843	0.816	0.801
323.15 K	1.484	1.224	1.036	0.908	0.823	0.769	0.735	0.715	0.701

CNC(C)=O + CS(C)=O
313 K, 101 kPa
Settings	viscosity [mPa·s]
x2 = 0.0743	2.725
x2 = 0.177	2.42
x2 = 0.2759	2.198
x2 = 0.3801	2.01
x2 = 0.4764	1.888
x2 = 0.5737	1.78
x2 = 0.6725	1.696
x2 = 0.7647	1.626
x2 = 0.8734	1.567
x2 = 0.9723	1.522

CNCCO + CS(C)=O
viscosity [mPa·s], 101.3 kPa
Settings	x1 = 0.1038	x1 = 0.2066	x1 = 0.3084	x1 = 0.4095	x1 = 0.5101	x1 = 0.6095	x1 = 0.7084	x1 = 0.8064	x1 = 0.9035
293.15 K	2.286	2.433	2.768	3.144	3.804	4.512	5.755	7.432	9.786
298.15 K	2.054	2.173	2.45	2.754	3.293	3.852	4.836	6.143	7.947
303.15 K	1.858	1.956	2.186	2.435	2.877	3.327	4.116	5.151	6.549
308.15 K	1.691	1.771	1.964	2.168	2.537	2.905	3.542	4.368	5.476
313.15 K	1.547	1.613	1.776	1.946	2.254	2.555	3.077	3.745	4.627
318.15 K	1.419	1.481	1.615	1.755	2.016	2.264	2.697	3.241	3.954
323.15 K	1.309	1.361	1.469	1.594	1.815	2.044	2.383	2.83	3.41

Oc1ccc(Cl)cc1 + C[N+](C)(C)CCO.[Cl-]
Settings	viscosity
293.15 K, 101 kPa, x2 = 0.333	170.6 mPa·s
298.15 K, 101 kPa, x2 = 0.333	123.2 mPa·s
298.15 K, 101.33 kPa, x1 = 0.7	180.2 mPa·s
298.15 K, 101.33 kPa, x1 = 0.8	108.2 mPa·s and 77.89 mPa·s and 66.12 mPa·s
298.15 K, 101.33 kPa, x1 = 0.9	61.06 mPa·s
303.15 K, 101 kPa, x2 = 0.333	92.75 mPa·s
308.15 K, 101 kPa, x2 = 0.333	71.68 mPa·s
313.15 K, 101 kPa, x2 = 0.333	55.45 mPa·s
318.15 K, 101 kPa, x2 = 0.333	43.94 mPa·s
323.15 K, 101 kPa, x2 = 0.333	35.45 mPa·s

CNC(C)=O + Cc1cc(C)cc(C)c1
308.15 K, 101.33 kPa
Settings	viscosity [mPa·s]
x1 = 0.0458	0.6101
x1 = 0.3137	1.08
x1 = 0.4362	1.342
x1 = 0.5467	1.621
x1 = 0.646	1.898
x1 = 0.7315	2.174
x1 = 0.8095	2.455
x1 = 0.8779	2.719
x2 = 0.0126	3.191

CCOCCO + Cc1ccc(C)cc1
viscosity [mPa·s], 101 kPa
Settings	298.15 K	308.15 K
x1 = 0.0551	0.632	0.555
x1 = 0.1489	0.672	0.584
x1 = 0.2499	0.725	0.625
x1 = 0.3507	0.792	0.674
x1 = 0.4514	0.875	0.735
x1 = 0.5001	0.922	0.769
x1 = 0.5497	0.975	0.808
x1 = 0.6526	1.106	0.9
x1 = 0.7513	1.262	1.01
x1 = 0.8499	1.456	1.143
x1 = 0.9549	1.717	1.319

CCOCCO + Cc1cccc(C)c1
viscosity [mPa·s], 101 kPa
Settings	298.15 K	308.15 K
x1 = 0.0531	0.608	0.521
x1 = 0.1513	0.663	0.566
x1 = 0.2482	0.727	0.618
x1 = 0.3528	0.809	0.682
x1 = 0.4512	0.9	0.752
x1 = 0.5053	0.957	0.795
x1 = 0.5473	1.006	0.831
x1 = 0.6494	1.14	0.928
x1 = 0.751	1.3	1.04
x1 = 0.8492	1.487	1.168
x1 = 0.9554	1.731	1.33
